Laboratory results reported in ChEMBL document CHEMBL3808272, “Discovery of (S)-4-isobutyloxazolidin-2-one as a novel leucyl-tRNA synthetase (LRS)-targeted mTORC1 inhibitor” (Bioorg Med Chem Lett, 2016).
Activity calls are given as the source filed them. No cut-off for these calls is given here.

Legend:
HEK293 [1] = test: Inhibition of mTORC2 (unknown origin) expressed in HEK293 cells assessed as inhibition of leucine-induced Akt S473 phosphorylation pre-treated at 100 nM to 800 uM followed by leucine stimulation for 10 mins by immunoblotting analysis; format: cell-based; settings: Homo sapiens
[2] = target: Leucine--tRNA ligase, cytoplasmic (Homo sapiens) (UniProt Q9P2J5); test: Inhibition of leucyl-tRNA synthetase (unknown origin) expressed in HEK293 cells assessed as inhibition of leucine-induced mTORC1-mediated S6 kinase phosphorylation pre-treated with compound followed by leucine stimulation for 10 mins by immunoblotting analysis; format: cell-based
[3] = target: Leucine--tRNA ligase, cytoplasmic (Homo sapiens) (UniProt Q9P2J5); test: Inhibition of leucyl-tRNA synthetase (unknown origin) expressed in HEK293 cells assessed as inhibition of leucine-induced mTORC1-mediated S6 kinase phosphorylation pre-treated at 1 mM followed by leucine stimulation for 10 mins by immunoblotting analysis; format: cell-based
HEK293 [4] = test: Effect on cellular Akt level in HEK293 cells pre-treated at 100 nM to 800 uM followed by leucine stimulation for 10 mins by immunoblotting analysis; format: cell-based; settings: human
[5] = target: Leucine--tRNA ligase, cytoplasmic (Homo sapiens) (UniProt Q9P2J5); test: Inhibition of leucyl-tRNA synthetase (unknown origin) catalytic activity assessed as aminoleucylation
SW-620 [6] = test: Cytotoxicity against rapamycin resistant human SW620 cells by CellTox green fluorescent dye based assay; format: functional, cell-based
[7] = target: Leucine--tRNA ligase, cytoplasmic (Homo sapiens) (UniProt Q9P2J5); test: Inhibition of leucyl-tRNA synthetase (unknown origin) expressed in HEK293 cells assessed as inhibition of leucine-induced mTORC1-mediated S6 kinase phosphorylation pre-treated at 100 nM followed by leucine stimulation for 10 mins by immunoblotting analysis; format: cell-based
HEK293 [8] = test: Inhibition of mTORC2 (unknown origin) expressed in HEK293 cells assessed as inhibition of leucine-induced Akt S473 phosphorylation pre-treated at 100 nM followed by leucine stimulation for 10 mins by immunoblotting analysis; format: cell-based; settings: Homo sapiens
SW-620 [9] = test: Cytotoxicity against rapamycin resistant human SW620 cells at 1 uM by CellTox green fluorescent dye based assay; format: functional, cell-based
HEK293 [10] = test: Effect on cellular Akt level in HEK293 cells pre-treated at 100 nM followed by leucine stimulation for 10 mins by immunoblotting analysis; format: ADME, cell-based; settings: human, hek293, 0.1 µM
SW-620 [11] = test: Cytotoxicity against rapamycin resistant human SW620 cells at 400 uM to 4 mM by CellTox green fluorescent dye based assay; format: functional, cell-based
HEK293 [12] = test: Inhibition of mTORC2 (unknown origin) expressed in HEK293 cells assessed as inhibition of leucine-induced Akt S473 phosphorylation pre-treated at 800 uM followed by leucine stimulation for 10 mins by immunoblotting analysis; format: cell-based; settings: Homo sapiens
[13] = target: Leucine--tRNA ligase, cytoplasmic (Homo sapiens) (UniProt Q9P2J5); test: Inhibition of leucyl-tRNA synthetase (unknown origin) expressed in HEK293 cells assessed as inhibition of leucine-induced mTORC1-mediated S6 kinase phosphorylation pre-treated at 800 uM followed by leucine stimulation for 10 mins by immunoblotting analysis; format: cell-based
HEK293 [14] = test: Effect on cellular Akt level in HEK293 cells pre-treated at 800 uM followed by leucine stimulation for 10 mins by immunoblotting analysis; format: ADME, cell-based; settings: human, hek293, 800 µM

Sequence of Leucine--tRNA ligase, cytoplasmic (Homo sapiens) (Q9P2J5 whole entry, looked up): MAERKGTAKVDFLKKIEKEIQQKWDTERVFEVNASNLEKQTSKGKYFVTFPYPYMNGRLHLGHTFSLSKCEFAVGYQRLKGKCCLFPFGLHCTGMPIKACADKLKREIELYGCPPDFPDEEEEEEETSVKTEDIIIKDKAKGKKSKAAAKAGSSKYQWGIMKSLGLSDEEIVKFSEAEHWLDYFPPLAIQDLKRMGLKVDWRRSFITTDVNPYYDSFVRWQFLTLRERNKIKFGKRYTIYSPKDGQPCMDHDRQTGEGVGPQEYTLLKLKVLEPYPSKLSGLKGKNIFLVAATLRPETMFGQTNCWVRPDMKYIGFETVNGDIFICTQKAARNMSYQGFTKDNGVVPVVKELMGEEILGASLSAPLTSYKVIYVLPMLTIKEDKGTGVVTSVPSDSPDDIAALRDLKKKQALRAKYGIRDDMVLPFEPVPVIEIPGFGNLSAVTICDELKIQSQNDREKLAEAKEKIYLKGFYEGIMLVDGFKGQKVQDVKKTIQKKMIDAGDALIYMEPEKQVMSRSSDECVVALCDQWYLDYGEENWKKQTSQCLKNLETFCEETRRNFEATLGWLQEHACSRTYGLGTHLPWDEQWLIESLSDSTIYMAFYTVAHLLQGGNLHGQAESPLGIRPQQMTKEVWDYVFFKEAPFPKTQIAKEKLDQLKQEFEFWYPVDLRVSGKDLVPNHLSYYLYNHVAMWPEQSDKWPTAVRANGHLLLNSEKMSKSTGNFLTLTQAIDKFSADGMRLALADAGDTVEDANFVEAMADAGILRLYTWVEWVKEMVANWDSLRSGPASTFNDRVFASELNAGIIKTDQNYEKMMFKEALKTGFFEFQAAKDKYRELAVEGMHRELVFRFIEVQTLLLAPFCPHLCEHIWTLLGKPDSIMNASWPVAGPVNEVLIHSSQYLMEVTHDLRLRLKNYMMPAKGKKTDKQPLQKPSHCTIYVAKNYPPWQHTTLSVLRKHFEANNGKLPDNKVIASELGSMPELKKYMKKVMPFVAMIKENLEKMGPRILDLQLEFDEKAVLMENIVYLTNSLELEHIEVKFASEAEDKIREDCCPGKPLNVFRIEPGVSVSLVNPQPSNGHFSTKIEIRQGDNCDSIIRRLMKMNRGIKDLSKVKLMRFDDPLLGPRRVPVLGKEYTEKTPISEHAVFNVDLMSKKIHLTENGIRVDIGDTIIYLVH

In the case of `CC(C)C[C@H]1COC(=O)N1`, the inhibition (HEK293 [1]) is reported as “inactive”, the inhibition [2] is reported as “Dose-dependent effect” and the inhibition [3] is reported as “Active”. For the same molecule, the Activity (HEK293 [4]) was “Non-toxic”.

In the case of `CC(=O)NC[C@@H](N)CC(C)C`, the inhibition [3] is reported as “inactive”.

For `CC(C)C[C@H](N)/C=N/O`, the inhibition [3] was “inactive”.

With `CC(C)C[C@H](N)CN` the inhibition [3] was “inactive”.

For `CC(C)C[C@H](N)COS(C)(=O)=O`, the inhibition [3] was “inactive”.

In the case of `CC(C)C[C@H]1CNC(=O)N1`, the inhibition (HEK293 [1]) is reported as “inactive”, the inhibition [5] is reported as “inactive” and the inhibition [2] is reported as “Dose-dependent effect”. For the same molecule, the inhibition [3] was “Active”, the Activity (SW-620 [6]) was “Dose-dependent effect” and the Activity (HEK293 [4]) was “Non-toxic”.

In the case of `COC[C@@H](N)CC(C)C`, the inhibition [3] is reported as “inactive”.

With `CC(C)C[C@H](N)CNS(C)(=O)=O` the inhibition [3] was “inactive”.

With `CO[C@H]1C[C@@H]2CC[C@@H](C)[C@@](O)(O2)C(=O)C(=O)N2CCCC[C@H]2C(=O)O[C@H]([C@H](C)C[C@@H]2CC[C@@H](O)[C@H](OC)C2)CC(=O)[C@H](C)/C=C(\C)[C@@H](O)[C@@H](OC)C(=O)[C@H](C)C[C@H](C)/C=C/C=C/C=C/1C` [SIROLIMUS] the inhibition [7] was “Active”, the inhibition (HEK293 [8]) was “inactive” and the Activity (SW-620 [9]) was “inactive”. The Activity (HEK293 [10]) was “Non-toxic”.

`CC(C)C[C@H](N)CO` was tested, and the Activity (SW-620 [11]) was “Active”, the inhibition (HEK293 [12]) was “inactive” and the inhibition [3] was “Active”. The inhibition [13] was “Active” and the Activity (HEK293 [14]) was “Non-toxic”.

`CC(C)Cc1ncc[nH]1` was tested, and the inhibition (HEK293 [1]) was “inactive”, the inhibition [5] was “inactive” and the inhibition [2] was “Dose-dependent effect”. The inhibition [3] was “Active” and the Activity (HEK293 [4]) was “Non-toxic”.

With `CC(C)C[C@H](N)[C@@H](C)O` the inhibition [3] was “inactive”.

`CC(C)C[C@H](N)CNO` was tested, and the inhibition (HEK293 [1]) was “inactive”, the inhibition [2] was “Dose-dependent effect” and the inhibition [3] was “Active”. For the same molecule, the Activity (HEK293 [4]) was “Non-toxic”.

For `CC(C)C[C@H](N)CCO`, the inhibition [3] was “inactive”.

`CC(C)C[C@H](N)CCN` was tested, and the inhibition [3] was “inactive”.

With `CC(C)C[C@H](N)[C@H](C)O` the inhibition [3] was “inactive”.
